Laboratory results: patent US11304929B2, “Tosylacetate based compounds and derivatives thereof as PHGDH inhibitors” (priority 2017, dated 2022)
pIC50: −log10 of the molar value. Like-named read-outs stand apart in the source and are kept apart here.

Legend:
PHGDH = PHGDH (Homo sapiens (Human), UniProt O43175); experiment: 3-Phosphoglycerate Dehydrogenase (PHGDH) Fluorescence Intensity Assay, run at two NAD/3-PG ratios: PHGDH_HIGH_NAD/3-PG (250 μM NAD/500 μM 3-PG) and PHGDH_500_NAD/3-PG (500 μM NAD/500 μM 3-PG); format: biochemical
MDA-MB-468 = experiment: 13C3 Serine Assay MDA-MB-468 (13C3 serine levels by LC/MS/MS); format: cell-based; settings: Homo sapiens
[1] = 250 μM NAD/500 μM 3-PG, read-out: IC50 (PHGDH_HIGH_NAD/3-PG)
[2] = MDA-MB-468 cells, 13C3 serine levels by LC/MS/MS, read-out: IC50 (13CSERINE)
[3] = 500 μM NAD/500 μM 3-PG, read-out: IC50 (PHGDH_500_NAD/3-PG)
[4] = MDA-MB-468, read-out: IC50 (13CSERINE)

Chain of PHGDH (O43175 2-533 limits assumed): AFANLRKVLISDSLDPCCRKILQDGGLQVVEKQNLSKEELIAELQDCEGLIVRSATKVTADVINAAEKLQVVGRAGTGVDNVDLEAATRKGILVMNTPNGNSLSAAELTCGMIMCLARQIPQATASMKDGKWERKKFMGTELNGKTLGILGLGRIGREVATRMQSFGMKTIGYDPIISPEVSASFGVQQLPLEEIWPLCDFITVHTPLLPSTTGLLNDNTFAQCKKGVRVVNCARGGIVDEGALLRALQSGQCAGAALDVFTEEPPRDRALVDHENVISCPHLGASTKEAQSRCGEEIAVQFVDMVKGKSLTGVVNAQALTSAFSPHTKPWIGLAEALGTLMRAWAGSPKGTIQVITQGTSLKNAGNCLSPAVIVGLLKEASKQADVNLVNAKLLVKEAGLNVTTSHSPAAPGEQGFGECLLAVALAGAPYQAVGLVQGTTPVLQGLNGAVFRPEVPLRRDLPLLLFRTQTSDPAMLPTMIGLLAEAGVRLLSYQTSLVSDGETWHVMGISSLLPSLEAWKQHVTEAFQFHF

Structure (SMILES) | pIC50 (PHGDH; [1]) | pIC50 (MDA-MB-468; [2]) | pIC50 (PHGDH; [3]) | pIC50 (MDA-MB-468; [4])
CC(C)OC(=O)CS(=O)(=O)c1ccc([C@@H](C)NC(=O)c2cc3cc(Cl)c(-c4cnn(CCN5CCOCC5)c4)cc3n2C)cc1 [Example 01-026, propan-2-yl 2-{4-[(1R)-1-[(5-chloro-1-methyl-6-{1-[2-(morpholin-4-yl)ethyl]-1H-pyrazol-4-yl}-1H-indol-2-yl)formamido]ethyl]benzenesulfonyl}acetate] | 5.87 | 7.44 |  | 
COC(=O)CS(=O)(=O)c1ccc([C@@H](C)NC(=O)c2cc3cc(Cl)c(-c4cnn(CCN5CCOCC5)c4)cc3n2C)cc1 [Example 01-027, methyl 2-{4-[(1R)-1-[(5-chloro-1-methyl-6-{1-[2-(morpholin-4-yl)ethyl]-1H-pyrazol-4-yl}-1H-indol-2-yl)formamido]ethyl]benzenesulfonyl}acetate] | 6.61 | 7.47 |  | 
CCOC(=O)CS(=O)(=O)c1ccc([C@@H](CO)NC(=O)c2cc3c(F)c(F)c(C)cc3n2C)cc1 [Example 01-028, ethyl 2-{4-[(1S)-1-[(4,5-difluoro-1,6-dimethyl-1H-indol-2-yl)formamido]-2-hydroxyethyl]benzenesulfonyl}acetate] | 6.57 | 8.14 | 6.28 | 
COC(=O)CS(=O)(=O)c1ccc([C@@H](C)NC(=O)c2cc(-c3ccc(F)cc3)nn2C)cc1 [Example 02-001, methyl 2-{4-[(1R)-1-{[3-(4-fluorophenyl)-1-methyl-1H-pyrazol-5-yl]formamido}ethyl]benzenesulfonyl}acetate] | 5.90 | 7.48 |  | 
CCOC(=O)CS(=O)(=O)c1ccc([C@@H](C)NC(=O)c2cc(-c3ccc(F)cc3)nn2C)cc1 [Example 02-004, ethyl 2-{4-[(1R)-1-{[3-(4-fluorophenyl)-1-methyl-1H-pyrazol-5-yl]formamido}ethyl]benzenesulfonyl}acetate] | 5.51 | 7.21 |  | 
CCOC(=O)CS(=O)(=O)c1ccc([C@@H](C)NC(=O)c2cc(-c3cccc4cc[nH]c34)nn2C)cc1 [Example 02-005, ethyl 2-{4-[(1R)-1-{[3-(1H-indol-7-yl)-1-methyl-1H-pyrazol-5-yl]formamido}ethyl]benzenesulfonyl}acetate] | 5.52 | 7.19 |  | 
COC(=O)CS(=O)(=O)c1ccc([C@@H](CO)NC(=O)c2cc(-c3ccccc3)nn2C)cc1 [Example 02-007, methyl 2-{4-[(1S)-2-hydroxy-1-[(1-methyl-3-phenyl-1H-pyrazol-5-yl)formamido]ethyl]benzenesulfonyl}acetate] | 5.36 | 6.78 |  | 
CC(C)OC(=O)CS(=O)(=O)c1ccc([C@@H](C)NC(=O)c2cc(-c3ccc(F)cc3)nn2C)cc1 [Example 02-008, propan-2-yl 2-{4-[(1R)-1-{[3-(4-fluorophenyl)-1-methyl-1H-pyrazol-5-yl]formamido}ethyl]benzenesulfonyl}acetate] | 5.31 | 7.16 |  | 
COC(=O)CS(=O)(=O)c1ccc([C@@H](C)NC(=O)c2cc(-c3ccccc3)nn2C)cn1 [Example 02-010, methyl 2-({5-[(1R)-1-[(1-methyl-3-phenyl-1H-pyrazol-5-yl)formamido]ethyl]pyridin-2-yl}sulfonyl)acetate] | 5.43 | 6.23 |  | 
CC(C)OC(=O)CS(=O)(=O)c1ccc([C@@H](C)NC(=O)c2cc(-c3ccccc3)nn2C)cc1 [Example 02-011, propan-2-yl 2-{4-[(1R)-1-[(1-methyl-3-phenyl-1H-pyrazol-5-yl)formamido]ethyl]benzenesulfonyl}acetate] | 5.17 | 6.87 |  | 
Cc1cc(Cl)c2cc(C(=O)N[C@H](CO)c3ccc(S(=O)(=O)CC(=O)O)cc3)n(C)c2c1 [Example 03-002, 2-{4-[(1S)-1-[(4-chloro-1,6-dimethyl-1H-indol-2-yl)formamido]-2-hydroxyethyl]benzenesulfonyl}acetic acid] | 8.22 |  |  | 5.86
Cc1cc2c(cc(C(=O)N[C@H](C)c3ccc(S(=O)(=O)CC(=O)O)cc3)n2C)c(Cl)c1Cl [Example 03-005, 2-{4-[(1R)-1-[(4,5-dichloro-1,6-dimethyl-1H-indol-2-yl)formamido]ethyl]benzenesulfonyl}acetic acid] | 8.40 |  | 8.05 | 5.97
Cc1cc2c(cc(C(=O)N[C@H](CO)c3ccc(S(=O)(=O)CC(=O)O)cc3)n2C)c(Cl)c1Cl [Example 03-006, 2-{4-[(1S)-1-[(4,5-dichloro-1,6-dimethyl-1H-indol-2-yl)formamido]-2-hydroxyethyl]benzenesulfonyl}acetic acid] | 8.52 |  | 8.40 | 6.69
Cc1cc(Cl)c2cc(C(=O)N[C@H](C)c3ccc(S(=O)(=O)CC(=O)O)cc3)n(C)c2c1 [Example 03-009, 2-{4-[(1R)-1-[(4-chloro-1,6-dimethyl-1H-indol-2-yl)formamido]ethyl]benzenesulfonyl}acetic acid] | 8.10 |  |  | 5.45
Cc1nc2c(cc(C(=O)N[C@H](CO)c3ccc(S(=O)(=O)CC(=O)O)cc3)n2C)c(Cl)c1Cl [Example 03-011, 2-{4-[(1S)-1-({4,5-dichloro-1,6-dimethyl-1H-pyrrolo[2,3-b]pyridin-2-yl}formamido)-2-hydroxyethyl]benzenesulfonyl}acetic acid] | 8.05 | 5.70 |  | 
Cc1cc(Cl)c2cc(C(=O)N[C@H](C)c3ccc(S(=O)(=O)C(C)C(=O)OC(C)(C)C)cc3)n(C)c2c1 (stereo partly drawn) [Example 05-001, tert-butyl 2-{4-[(1R)-1-[(4-chloro-1,6-dimethyl-1H-indol-2-yl)formamido]ethyl]benzenesulfonyl}propanoate] | 4.61 | 6.05 |  | 
CCOC(=O)C(C)(C)S(=O)(=O)c1ccc([C@@H](C)NC(=O)c2cc3c(Cl)cc(C)cc3n2C)cc1 [Example 05-003, ethyl 2-{4-[(1R)-1-[(4-chloro-1,6-dimethyl-1H-indol-2-yl)formamido]ethyl]benzenesulfonyl}-2-methylpropanoate] | 4.80 | 7.52 |  | 
Cc1cc(Cl)c2cc(C(=O)N[C@H](C)c3ccc(S(=O)(=O)C(C)C(=O)OC(C)C)cc3)n(C)c2c1 (stereo partly drawn) [Example 05-004, propan-2-yl 2-{4-[(1R)-1-[(4-chloro-1,6-dimethyl-1H-indol-2-yl)formamido]ethyl]benzenesulfonyl}propanoate] | 4.93 | 8.00 |  | 
COCCC(C(=O)OC)S(=O)(=O)c1ccc([C@@H](C)NC(=O)c2cc3c(Cl)cc(C)cc3n2C)cc1 (stereo partly drawn) [Example 05-005, methyl 2-{4-[(1R)-1-[(4-chloro-1,6-dimethyl-1H-indol-2-yl)formamido]ethyl]benzenesulfonyl}-4-methoxybutanoate] | 6.19 | 6.08 |  | 
COC(=O)C(C)S(=O)(=O)c1ccc([C@@H](C)NC(=O)c2cc3c(Cl)cc(C)cc3n2C)cc1 (stereo partly drawn) [Example 05-009, methyl 2-{4-[(1R)-1-[(4-chloro-1,6-dimethyl-1H-indol-2-yl)formamido]ethyl]benzenesulfonyl}propanoate] | 5.77 | 8.80 |  | 
COC(=O)C1(S(=O)(=O)c2ccc([C@@H](C)NC(=O)c3cc4c(Cl)cc(C)cc4n3C)cc2)CCOCC1 [Example 05-010, methyl 4-{4-[(1R)-1-[(4-chloro-1,6-dimethyl-1H-indol-2-yl)formamido]ethyl]benzenesulfonyl}oxane-4-carboxylate] | 4.95 | 8.43 |  | 
